The values that follow come from ChEMBL document CHEMBL3822405, “Binding mode prediction of aplysiatoxin, a potent agonist of protein kinase C, through molecular simulation and structure-activity study on simplified analogs of the receptor-recognition domain” (Bioorg Med Chem, 2016).

The target in the test is Protein kinase C delta type (Mus musculus, UniProt P28867). In words: Inhibition of [3H]PDBu binding to PKCdelta C1B domain in CD-1 mouse brain cytosol incubated for 30 mins.
Protein kinase C delta type, sequence (P28867 whole entry, the tested form may be a part): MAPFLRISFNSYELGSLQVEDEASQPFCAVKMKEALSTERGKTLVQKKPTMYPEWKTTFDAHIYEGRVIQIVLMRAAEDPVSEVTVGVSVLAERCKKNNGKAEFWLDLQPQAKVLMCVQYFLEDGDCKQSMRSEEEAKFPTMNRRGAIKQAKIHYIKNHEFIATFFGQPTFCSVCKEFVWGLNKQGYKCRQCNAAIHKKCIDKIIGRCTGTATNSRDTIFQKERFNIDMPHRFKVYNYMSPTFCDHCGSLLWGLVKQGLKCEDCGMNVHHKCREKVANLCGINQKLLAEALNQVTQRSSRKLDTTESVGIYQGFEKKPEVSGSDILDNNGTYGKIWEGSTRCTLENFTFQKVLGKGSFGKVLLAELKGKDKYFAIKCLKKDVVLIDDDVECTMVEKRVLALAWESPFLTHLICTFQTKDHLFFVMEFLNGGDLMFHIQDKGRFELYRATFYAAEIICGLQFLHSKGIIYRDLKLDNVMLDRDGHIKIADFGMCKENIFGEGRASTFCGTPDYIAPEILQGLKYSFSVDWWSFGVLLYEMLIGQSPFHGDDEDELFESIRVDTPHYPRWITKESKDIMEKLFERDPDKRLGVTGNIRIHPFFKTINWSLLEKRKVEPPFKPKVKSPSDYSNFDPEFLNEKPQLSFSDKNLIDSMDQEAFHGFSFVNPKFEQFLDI
Broadly, the Ki is a dissociation constant, usually derived from enzyme kinetics or from competition with a known ligand. Read a high Ki as a looser hold on the target. `CCCCCCCCOC(=O)C[C@@H](OC(=O)CCCCCCC)[C@@H](C)O`: the affinity corresponds to a Ki of 370 nM.

`CCCCCCCCC[C@@H](OC(=O)CCCCCCC)[C@@H](C)O`: the Ki was over 20000 nM.

For `CCCCCCCCOC(=O)C[C@@H](OCCCCCCCC)[C@@H](C)O`, the affinity corresponds to a Ki of 2900 nM.
